{"source": "patent US20090149533A1", "about": "(TransForm Pharmaceuticals, Inc., priority 2004, published 2009)", "key": {"[1]": {"test": "Solubility of fenofibrate in E463808-additive mixtures", "type": "physicochemical", "conditions": "about 10% v/v additive; 25° C.", "procedure": "Equilibrated samples were filtered using 0.2 micrometer PVDF syringe filters and diluted for assay. […] (Tween 85 is also known as polyoxyethylenesorbitan trioleate, Tween 80 is also known as polyoxyethylenesorbitan monooleate, Span 80 is also known as sorbitan monooleate, Span 85 is also known as sorbitan trioleate, and Cremophor EL is also known as polyoxyl castor oil.) Span 80, Span 85, and Tween 85 samples were analyzed using normal-phase HPLC. Cremophor EL, Tween 80, and replicates of Tween 85 samples were analyzed using UV measurements at 285 nm."}, "[2]": {"test": "Stability and compatibility of fenofibrate and E463808 (gradient HPLC)", "type": "physicochemical", "conditions": "80 or 200 mg/mL in E463808, sealed vial or gelcap, 4 deg C. to 60 deg C., up to 8 weeks"}, "[3]": {"test": "Equilibrium fenofibrate solubility in ethyl esters versus triglycerides", "type": "physicochemical", "conditions": "fenofibrate solubility at 25 degrees C. in the vehicle given as label"}, "[4]": {"conditions": "in vivo; cited from earlier work"}}}
{"molecule": "polyoxyl castor oil [Cremophor® EL]", "values": [{"measurement": "effect of additive on fenofibrate solubility in E463808", "setting": "[1]", "value": "Slight enhancement in fenofibrate solubility"}]}
{"molecule": "CC(C)OC(=O)C(C)(C)Oc1ccc(C(=O)c2ccc(Cl)cc2)cc1", "note": "[Fenofibrate, 2-[4-(4-chlorobenzoyl)phenoxy]-2-methyl-propanoic acid 1-methylethyl ester]", "values": [{"measurement": "degradation of fenofibrate", "setting": "[2]", "value": "no degradation was observed"}]}
{"molecule": "CCCCC/C=C\\C/C=C\\CCCCCCCC(=O)OCC(COC(=O)CCCCCCC/C=C\\C/C=C\\CCCCC)OC(=O)CCCCCCC/C=C\\C/C=C\\CCCCC", "note": "[Trilinolein]", "values": [{"measurement": "Solubility", "setting": "[3]", "value": 61.2, "unit": "mg/mL"}]}
{"molecule": "polyoxyethylenesorbitan monooleate [Tween 80®]", "values": [{"measurement": "effect of additive on fenofibrate solubility in E463808", "setting": "[1]", "value": "Slight enhancement in fenofibrate solubility"}]}
{"molecule": "CC(C)(Oc1ccc(C(=O)c2ccc(Cl)cc2)cc1)C(=O)O", "note": "[fenofibric acid]", "values": [{"measurement": "elimination half-life", "setting": "[4]", "value": "approximately twenty"}]}
{"molecule": "polyoxyethylenesorbitan trioleate [Tween 85®]", "values": [{"measurement": "effect of additive on fenofibrate solubility in E463808", "setting": "[1]", "value": "Slight enhancement in fenofibrate solubility"}]}
